Earlier results as cited in patent US7569547B2, “Inhibiting furin with polybasic peptides” (Board of Supervisors of Louisiana State University and …, priority 2001, dated 2009).
No end group written: not given here.

Columns and labels:
furin [1] = target: T1, furin (Homo sapiens, UniProt P09958); settings: Lu et al. 1993; cited from earlier work
furin [2] = target: T1, furin; settings: literature; read-out: Ki against furin; cited from earlier work
PC7 = target: T2, PC7 (Homo sapiens, UniProt Q16549); settings: Zhong et al. 1999; read-out: Ki against PC7; cited from earlier work
T2 sequence (Q16549 142-785): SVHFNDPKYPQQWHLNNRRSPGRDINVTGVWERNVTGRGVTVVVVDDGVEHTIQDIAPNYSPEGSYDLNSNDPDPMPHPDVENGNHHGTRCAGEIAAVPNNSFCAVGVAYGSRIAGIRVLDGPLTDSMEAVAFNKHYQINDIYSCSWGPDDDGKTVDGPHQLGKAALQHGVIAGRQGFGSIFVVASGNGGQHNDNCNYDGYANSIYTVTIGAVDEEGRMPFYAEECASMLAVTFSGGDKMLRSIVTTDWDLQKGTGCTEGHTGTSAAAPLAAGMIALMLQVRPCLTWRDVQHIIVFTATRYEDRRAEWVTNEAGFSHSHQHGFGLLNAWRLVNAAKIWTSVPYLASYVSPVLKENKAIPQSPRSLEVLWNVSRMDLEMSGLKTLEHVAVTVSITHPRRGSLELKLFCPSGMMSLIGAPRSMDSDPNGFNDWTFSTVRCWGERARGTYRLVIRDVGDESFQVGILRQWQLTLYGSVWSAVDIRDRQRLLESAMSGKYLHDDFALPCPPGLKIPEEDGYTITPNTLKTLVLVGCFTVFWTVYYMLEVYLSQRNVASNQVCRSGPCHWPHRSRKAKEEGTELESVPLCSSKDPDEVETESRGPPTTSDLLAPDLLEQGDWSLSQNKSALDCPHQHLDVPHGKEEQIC

T1 sequence (P09958 108-794): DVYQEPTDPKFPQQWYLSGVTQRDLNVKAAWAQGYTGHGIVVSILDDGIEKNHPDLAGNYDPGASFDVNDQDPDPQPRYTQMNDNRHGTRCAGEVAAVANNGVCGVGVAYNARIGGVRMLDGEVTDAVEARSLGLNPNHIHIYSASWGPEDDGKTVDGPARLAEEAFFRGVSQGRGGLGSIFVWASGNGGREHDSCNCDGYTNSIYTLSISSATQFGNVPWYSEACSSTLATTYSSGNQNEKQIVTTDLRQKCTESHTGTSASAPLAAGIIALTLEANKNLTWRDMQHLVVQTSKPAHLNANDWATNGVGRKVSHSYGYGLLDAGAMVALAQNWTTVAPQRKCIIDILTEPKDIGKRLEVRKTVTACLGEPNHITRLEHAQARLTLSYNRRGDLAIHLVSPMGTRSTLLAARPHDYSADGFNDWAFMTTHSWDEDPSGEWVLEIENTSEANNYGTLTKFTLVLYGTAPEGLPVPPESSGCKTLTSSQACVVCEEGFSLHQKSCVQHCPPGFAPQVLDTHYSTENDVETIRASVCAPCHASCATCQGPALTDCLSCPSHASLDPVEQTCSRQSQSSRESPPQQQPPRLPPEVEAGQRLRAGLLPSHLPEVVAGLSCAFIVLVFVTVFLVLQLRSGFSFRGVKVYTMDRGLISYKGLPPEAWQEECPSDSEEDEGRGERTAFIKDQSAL

Substance	equilibrium constant (furin [1]) [M⁻¹]	Ki (furin [2]) [µM]	Ki (PC7) [µM]
Arg^15-Lys^17-Arg^18 turkey ovomucoid third domain: third domain of turkey ovomucoid engineered (KPACTLE^19→KPRCKRE^19) to increase specificity towards furin (not fully specified; ends and bridges not checked)	1.1e+07		
EQRLLKRAKR		0.08	0.006
QQVAKRRTKR			~0.5
